In PMC10868801, “Characterization of covalent inhibitors that disrupt the interaction between the tandem SH2 domains of SYK and FCER1G phospho-ITAM” (PLOS ONE, 2024):
In brackets after ≈: the same amount, converted by molar mass. Read-outs that look alike come from different tables or passages of the source. Non-standard residues stand in square brackets, D forms with d. Residues, ends and D or L forms follow the SMILES beside them. Primed or numbered codes have the meaning given here. No end group written: not given here. pY = N[C@@H](Cc1ccc(OP(=O)(O)O)cc1)C(=O)O; FITC′ = not defined here

Columns and labels:
SH-SY5Y cells = system: SH-SY5Y cells; design: method as in PMID 31324720; details: 5 μM, cited from earlier work
Tg Tau P301S mice = details: cited from earlier work
[1] = system: primary neuron-glia cultures; design: method as in PMID 37009452; details: cited from earlier work
[2] = biological target: T1, SYK-tSH2 / FCER1G p-ITAM interaction (Homo sapiens, UniProt P43405); assay: TR-FRET assay of 6xHis-SYK-tSH2 with FITC-labeled FCER1G p-ITAM peptide; format: biochemical
T1 construct: the tSH2 domain of SYK (residues M6-N269) fused to an N-terminal 6×His tag; made in house; host or cells: E. coli BL21(DE3)-R3-pRARE
Excerpt: To facilitate identification of inhibitors of the SYK-FCER1G interaction, we developed a TR-FRET assay using recombinant protein comprising the tSH2 domain of SYK (residues M6-N269) fused to an N-terminal 6×His tag (S1A Fig). The TR-FRET assay is based on the interaction of a FITC-labeled FCER1G p-ITAM peptide to the 6×His-SYK-tSH2 protein in complex with a terbium-conjugated anti-His antibody (Tb-Ab) (Fig 3B). Once excited, a TR-FRET signal is generated from the Tb donor to the FITC acceptor fluorophore. […] To enable uHTS for large scale screening of small molecule libraries, we miniaturized the TR-FRET assay from 96-well plate format to a 1536-well.
TR-FRET experiments were performed in 20 μL reactions, using 384-well shallow-well microplates (PerkinElmer). Final reaction components contained 6xHis-SYK-tSH2 (SYKA-c020 tagged) (4 nM), FITC-conjugated FCER1G peptide (8 nM), Tb-conjugated anti-6xHis antibody (53 ng/ml; Cisbio) in assay buffer containing 25 mM HEPES (pH 7.5), 200 mM NaCl, 0.1% BSA and 0.05% Tween-20. After a 2h incubation (at room temperature), TR-FRET signals were measured on a BMG Labtech PHERAstar FSX reader using a Lanthascreen Optics Module. A 200 μs delay was used after excitation with a flash lamp before measurement of fluorescence emission at […]. TR-FRET ratios of fluorescent intensity at 520 nm to 490 nm were calculated. The half maximal inhibitory concentration (IC50) was determined by fitting a four parametric logistic curve to the data.

[3] = biological target: T2, full length SYK and FCER1G (Homo sapiens, UniProt P43405); assay: GST pull-down (GST-PD) of GST-SYK and FCER1G-Flag from HEK293T cell lysates; format: biochemical; details: for PPI disruption in GST-PD: dose-response format; for Inhibition of SYK-GST / FCER1G-Flag interaction in pulldown: single concentration (100 μM)
T2 construct: full length GST-SYK and FCER1G-Flag were co-expressed in HEK293 cells prior to lysis; expressed in transfected cells; host or cells: HEK293T (CRL-3216, ATCC)
Description: Pull-down assays were used as an orthogonal assay to determine if the compounds could disrupt the PPI between full length SYK and FCER1G proteins from cell lysates. To optimize GST pulldown assays, full length GST-SYK and FCER1G-Flag were co-expressed in HEK293 cells prior to lysis and the protein expression and cell lysate concentrations tested (Fig 4A). All 40 compounds that progressed from uHTS were tested via GST-PD at a single concentration (100 μM) to determine if they could inhibit the PPI between the full-length proteins, with the p-ITAM FCER1G peptide used as a positive control (Fig 4B). […] Compound 24 contains a promiscuous maleimide, which is well known to react indiscriminately with proteins.
GST-, VF-tagged human SYK and FCER1G plasmids for mammalian expression were generated using Gateway cloning technology (Invitrogen) as described previously. The DNA was purified using ZymoPURE Plasmid Maxiprep Kit (D4203, Zymo Research).
WB secondary antibodies: peroxidase-conjugated AffiniPure Goat Anti-Mouse IgG (H+L) (115-035-003, Jackson Immuno Research) 1:5000 dilution in TBST. GST pulldown was performed as described with minor changes. HEK293T (CRL-3216, ATCC) were cultured in Dulbecco’s modified Eagle’s medium with 4.5 g/L glucose, L-glutamine, and sodium pyruvate (10–013-CV, Corning) supplemented with 10% fetal bovine serum and 1% penicillin/streptomycin solution (30–002-CI, CellGro). Cells were incubated at 37°C in humidified conditions with 5% CO2. The HEK293T cells were transfected using 1 mg/mL Polyethylenimine (PEI; 23966, Polysciences) in a ratio of 3 μL to 1 μg DNA. The proteins were expressed for 48 h at 37°C. Cell pellets were re-suspended in the SYK lysis buffer (25 mM HEPES, pH 7.5, 200 mM NaCl, 0.5% Triton X100 (T9284-1L, Sigma-Aldrich), followed by sonication for 10 s (5 s on, 5 s off) at 4°C. Cells were pelleted by 10 min centrifugation at 13,000 rpm at 4°C. The cleared lysates were first pre-incubated with compounds for 30 min and then incubated with glutathione sepharose 4B beads (17075605, Cytiva Sweden AB) at 4°C for 2 h with rotation. After the incubation, beads were washed three times with the SYK lysis buffer, eluted by boiling in sodium dodecyl sulfate-polyacrylamide gel electrophoresis (SDS–PAGE) loading buffer (1610737, Bio-Rad), and analyzed by western blotting.

[4] = Compound solubility with nephelometer; format: physicochemical; details: aqueous buffer, kinetic from dmso stock, PBS, 90 min at room temperature
Description: Stock compound (10 mM in DMSO) was serial diluted in PBS (21-040-CV, Corning) in 96-well Costar Assay plate (3904, Corning). After incubating compound in PBS for 90 min at room temperature, the Nephelometric turbidity units (NTUs) were measured with NEPHELOstar (BMG LABTECH, Cary, North Carolina). 0.2 s was used for a measure time and PBS only as the background. Each sample was tested in triplicate. Dose-response data was analyzed by GraphPad Prism and the solubility concentration is defined at the concentration that increases the NTUs at the turning point of the curve.

MSN = MSN (Homo sapiens, UniProt P26038); assay: Covalent labelling and intact mass spectrometry (selectivity); details: 100 μM, 1 h, room temperature; four available cysteines
SYK-tSH2 [5] = biological target: T3, SYK-tSH2 (Homo sapiens, UniProt P43405); assay: Covalent labelling and intact mass spectrometry; format: binding; design: tandem SH2 domains of human SYK (residues M6-N269); 6xHis (N, cleaved yes); made in house; host or cells: E. coli BL21(DE3)-R3-pRARE; details: 100 μM, 1 h; for Number of mass adducts on SYK-tSH2: room temperature
Excerpt: The HTS hits 13 and 37 contain a kojic acid moiety, which is proposed to react covalently with proteins in the literature. As a result, we thought that it was likely these compounds are also reacting covalently with SYK-tSH2. […] When bound to the protein, these kojic acid-derived compounds have a 94 Da decrease in mass due to the loss of the pyridin-2-amine leaving group to reveal a Michael acceptor that can react covalently with cysteine residues (Fig 5B).
To expand on the initial 40 putative hits that were identified via uHTS (Fig 3D), additional commercially available structural analogues were ordered and screened via TR-FRET and differential scanning fluorimetry (DSF) (S1 Table). […] The observation of a substantial reduction in protein melting temperature motivated us to determine if the compounds interacted covalently with the SYK-tSH2 domains. Additionally, since the thiourea in these small molecules is reported to react via oxidation, the compounds could be capable of forming a covalent disulfide bond with cysteine residues on SYK [39]. We used compound 1, which is a known covalent modifier of SYK-tSH2, as a positive control in the mass spectrometry analysis. […] Literature reports support that this type of chemical reaction can occur in DMSO, forming a disulfide bond. […] Like we had originally observed for the older DMSO stock solution of 42 (Fig 6C), 44 forms two to four mass adducts (422 Da and 844 Da) more than the protein mass when incubated SYK-tSH2 for 1 h (Fig 6D). […] Due to the mass adducts of two to four (422 Da and 844 Da), we propose that 44 is forming a disulfide bond with between two or four cysteines on SYK-tSH2 (Fig 6G).

[6] = LCMS characterization of fresh versus older DMSO stocks; format: physicochemical; details: older DMSO stocks versus freshly prepared solutions
Excerpt: To expand on the initial 40 putative hits that were identified via uHTS (Fig 3D), additional commercially available structural analogues were ordered and screened via TR-FRET and differential scanning fluorimetry (DSF) (S1 Table). […] The observation of a substantial reduction in protein melting temperature motivated us to determine if the compounds interacted covalently with the SYK-tSH2 domains. Additionally, since the thiourea in these small molecules is reported to react via oxidation, the compounds could be capable of forming a covalent disulfide bond with cysteine residues on SYK [39]. We used compound 1, which is a known covalent modifier of SYK-tSH2, as a positive control in the mass spectrometry analysis. […] Literature reports support that this type of chemical reaction can occur in DMSO, forming a disulfide bond. […]
Supplementary file pone.0293548.s005.tiff: S4 Fig Identification of active disulfide compounds which form in DMSO solutions of compounds 42 and 43. […] LCMS Calculated for [M+H]^+ C7H9N4O2S: 213.04; observed: 213.1 [M+H]^+. […] LCMS Calculated for [M+H]^+ C14H15N8O4S2: 423.06; observed: 423.0 [M+H]^+. […] LCMS Calculated for [M+H]^+ C10H15N4O2S: 255.08; observed: 255.1 [M+H]^+. […] LCMS Calculated for [M+H]^+ C20H27N8O4S2: 507.15; observed: 507.1 [M+H]^+. […]

SYK-tSH2 [7] = biological target: T3, SYK-tSH2; assay: Bio-layer interferometry (BLI) direct binding; details: biotinylated SYK-tSH2
[8] = biological target: 6xHis-SYK-tSH2 (tandem SH2 domains of human SYK, residues M6-N269, SYKA-c020 tagged) (human) (UniProt P43405); assay: AlphaScreen or HTRF; TR-FRET competition: 6xHis-SYK-tSH2 4 nM with Tb-conjugated anti-6xHis antibody, FITC-conjugated FCER1G peptide 8 nM, unlabeled peptide titrated; 25 mM HEPES pH 7.5, 200 mM NaCl, 0.1% BSA, 0.05% Tween-20; 2 h at room temperature
[9] = competition of FITC-labeled FCER1G p-ITAM peptide by unlabeled peptide

MSN, sequence (P26038 whole entry, species assumed, the tested form may be a part): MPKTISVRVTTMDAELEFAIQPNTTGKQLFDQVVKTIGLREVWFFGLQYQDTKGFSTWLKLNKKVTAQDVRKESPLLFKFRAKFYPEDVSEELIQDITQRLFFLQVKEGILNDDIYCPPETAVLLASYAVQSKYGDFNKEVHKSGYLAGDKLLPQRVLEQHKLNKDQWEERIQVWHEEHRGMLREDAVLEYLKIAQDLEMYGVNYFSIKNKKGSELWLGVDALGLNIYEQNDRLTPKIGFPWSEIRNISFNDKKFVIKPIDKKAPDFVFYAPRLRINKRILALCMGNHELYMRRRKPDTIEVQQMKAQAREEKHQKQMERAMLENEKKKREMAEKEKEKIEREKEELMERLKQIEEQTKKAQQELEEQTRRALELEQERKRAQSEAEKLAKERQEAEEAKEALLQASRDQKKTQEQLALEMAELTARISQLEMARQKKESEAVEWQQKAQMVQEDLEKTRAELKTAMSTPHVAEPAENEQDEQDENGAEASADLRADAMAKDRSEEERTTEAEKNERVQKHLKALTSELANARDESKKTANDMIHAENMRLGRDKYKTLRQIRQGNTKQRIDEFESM

## COc1ccc(-c2cc3nccn3c(Nc3ncccc3C(N)=O)n2)cc1OC.Cl.Cl [BAY61-3606, 2-[7-(3,4-Dimethoxyphenyl)-imidazo[1,2-c]pyrimidin-5-ylamino]nicotinamide Dihydrochloride]
SH-SY5Y cells
  p-AKT, p-mTOR and p-p70 S6K levels: reduces p-AKT, p-mTOR, and p-p70 S6K levels
SH-SY5Y cells; in vitro
  Phosphorylated and total tau levels: reduces phosphorylated and total tau levels
Tg Tau P301S mice; Tg Tau P301S mice, 20 mg/kg, 12 weeks
  Levels of phospho-tau and total tau: reduced levels of phospho-tau (p-tau) and total tau (t-tau)
Tg Tau P301S mice; mouse tauopathy models
  Effect in mouse tauopathy models: decreased tau accumulation, neuronal and synaptic loss, neuroinflammation, and reversed defective autophagy
[1]
  Microglial-mediated phagocytosis of synapses and neurons: reduced microglial-mediated phagocytosis of synapses and neurons
[1]; primary neuron-glia cultures
  LPS-induced neuronal loss: prevented lipopolysaccharide (LPS)-induced neuronal loss

## CC(C)C[C@H](NC(=O)CNC(=O)[C@@H](NC(=O)[C@H](Cc1ccc(OP(=O)(O)O)cc1)NC(=O)[C@@H](NC(=O)CNC(=O)[C@@H](N)CC(=O)O)C(C)C)[C@@H](C)O)C(=O)N[C@@H](CO)C(=O)N[C@H](C(=O)N[C@@H](CCCNC(=N)N)C(=O)N[C@@H](CC(N)=O)C(=O)N[C@@H](CCC(N)=O)C(=O)N[C@@H](CCC(=O)O)C(=O)N[C@H](C(=O)N[C@@H](Cc1ccc(OP(=O)(O)O)cc1)C(=O)N[C@@H](CCC(=O)O)C(=O)N[C@H](C(=O)N[C@@H](CC(C)C)C(=O)N[C@@H](CCCCN)C(=O)N[C@@H](Cc1c[nH]cn1)C(=O)O)[C@@H](C)O)[C@@H](C)O)[C@@H](C)O [FCER1G p-ITAM peptide] (H-DGV[pY]TGLSTRNQET[pY]ETLKH-OH)
[2]; [9]
  IC50: 12 nM

## O=c1cc(CO)oc(C(Nc2ccccn2)c2ccc(F)cc2)c1O (stereo not drawn) [compound 13]
[3]
  PPI disruption in GST-PD: confirmed to disrupt the PPI
  Inhibition of SYK-GST / FCER1G-Flag interaction in pulldown: able to inhibit the interaction
[4]
  solubility at 90 min: 100 µM (≈ 34.2 µg/mL)
MSN
  Number of mass adducts on MSN: one weak mass adduct
SYK-tSH2 [5]
  Number of mass adducts on SYK-tSH2: between one and five

## O=C1C=CC(=O)N1c1ccc(Sc2ccc(N3C(=O)C=CC3=O)cc2)cc1 [compound 24]
[3]
  PPI disruption in GST-PD: confirmed to disrupt the PPI
  Inhibition of SYK-GST / FCER1G-Flag interaction in pulldown: able to inhibit the interaction

## O=c1cc(CO)oc(C(Nc2ccccn2)c2ccc3c(c2)OCO3)c1O (stereo not drawn) [compound 37]
[3]
  PPI disruption in GST-PD: confirmed to disrupt the PPI
  Inhibition of SYK-GST / FCER1G-Flag interaction in pulldown: able to inhibit the interaction
[4]
  solubility at 90 min: 100 µM (≈ 36.8 µg/mL)
MSN
  Number of mass adducts on MSN: one weak mass adduct
SYK-tSH2 [5]
  Number of mass adducts on SYK-tSH2: between two and seven

## CC(C)n1c(S)nc2c1c(=O)n(C)c(=O)n2C [compound 43]
[2]
  IC50: 3000 ± 1700 nM
[6]
  Stability in DMSO stock solution: had formed corresponding disulfide dimers in DMSO over time
SYK-tSH2 [7]
  BLI KD: did not bind
SYK-tSH2 [7]; read-out: BLI KD
  Kd: > 100000 nM
SYK-tSH2 [5]; older DMSO stock solutions
  Covalent modification of SYK-tSH2: did not demonstrate covalent attachment

## FCER1G-nonphospho-ITAM[62–81]-FITC (peptide)
[8]
  IC50: > 1000 nM

## FCER1G-phospho-ITAM[62–81] (peptide)
[8]
  IC50: 12 nM

## non-phosphorylated FCER1G ITAM peptide: non-phosphorylated FCER1G ITAM peptide used as control (DGVYTGLSTRNQETYETLKH-{FITC′})
[2]; [9]
  IC50: > 1000 nM
